For one series, the system named is hQAPRTase. The conditions noted are these: cited from earlier work.
The series “SEC” concerns the molecule itself. The series can be described thus: SEC. (SEC sorts molecules by how far they enter the pores of the column.)

In general, Km refers to the concentration of substrate that gives half-maximal velocity. The kcat is the maximal rate divided by the concentration of active sites. On to `O=C(O)c1cccnc1C(=O)O` [QA, 2,3-pyridinedicarboxylic acid], for which, in the series on hQAPRTase, the Km is 22 µM. Further, the catalytic constant (kcat) in the series on hQAPRTase (recalculated from Vmax) is 0.04 s⁻¹.

B1: Quinolinic acid phosphoribosyltransferase from Mycobacterium tuberculosis H37Rv (recombinant, C-terminal 6xHis) (enzyme)
chain: MGLSDWELAAARAAIARGLDEDLRYGPDVTTLATVPASATTTASLVTREAGVVAGLDVALLTLNEVLGTNGYRVLDRVEDGARVPPGEALMTLEAQTRGLLTAERTMLNLVGHLSGIATATAAWVDAVRGTKAKIRDTRKTLPGLRALQKYAVRTGGGVNHRLGLGDAALIKDNHVAAAGSVVDALRAVRNAAPDLPCEVEVDSLEQLDAVLPEKPELILLDNFAVWQTQTAVQRRDSRAPTVMLESSGGLSLQTAATYAETGVDYLAVGALTHSVRVLDIGLDM
notes: also called MtQAPRTase; QAPRTase; not shown: His6, C-terminal, kept
Usually stoichiometry N stands for a count of units in the complex or per binding partner. For the molecule B1, the “stoichiometry N” value in “SEC” came out at 2.

The values are drawn from PMC4065032, “Biochemical Characterization of Quinolinic Acid Phosphoribosyltransferase from Mycobacterium tuberculosis H37Rv and Inhibition of Its Activity by Pyrazinamide” (PLoS ONE, 2014).
